The target in this test is T1, Human Polθ polymerase domain (aa1820-2590) (Homo sapiens, UniProt O75417).
T1 construct: Human Polθ polymerase domain (aa1820-2590) was expressed in E. coli; made in house; host or cells: E. coli
T1 sequence (O75417 1820-2590): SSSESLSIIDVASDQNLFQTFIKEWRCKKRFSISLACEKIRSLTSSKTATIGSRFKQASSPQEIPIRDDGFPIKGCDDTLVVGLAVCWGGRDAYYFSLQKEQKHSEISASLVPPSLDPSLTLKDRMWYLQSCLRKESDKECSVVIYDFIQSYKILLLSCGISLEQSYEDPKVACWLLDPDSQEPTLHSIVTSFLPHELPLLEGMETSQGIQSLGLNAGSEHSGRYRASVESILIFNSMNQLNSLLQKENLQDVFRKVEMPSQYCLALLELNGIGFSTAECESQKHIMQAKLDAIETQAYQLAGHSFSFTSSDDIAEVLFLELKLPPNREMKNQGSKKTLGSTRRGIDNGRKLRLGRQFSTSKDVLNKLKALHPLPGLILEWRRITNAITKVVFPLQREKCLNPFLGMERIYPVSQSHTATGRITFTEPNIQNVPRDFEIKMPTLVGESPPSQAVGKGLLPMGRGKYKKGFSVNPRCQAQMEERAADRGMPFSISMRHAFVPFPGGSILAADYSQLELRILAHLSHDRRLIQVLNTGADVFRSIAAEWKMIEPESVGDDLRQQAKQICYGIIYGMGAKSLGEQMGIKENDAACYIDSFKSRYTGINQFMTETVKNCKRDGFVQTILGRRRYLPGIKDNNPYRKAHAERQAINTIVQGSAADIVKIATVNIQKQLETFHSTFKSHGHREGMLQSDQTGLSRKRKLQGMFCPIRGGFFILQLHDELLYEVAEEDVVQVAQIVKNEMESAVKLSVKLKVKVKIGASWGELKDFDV
Description: Polθ Polymerase Domain Kinact/KI Assay (PicoGreen). The test is classed as biochemical. The conditions noted are these: 0.8 nM Polθ, 100 nM DNA substrate, kobs vs [I] fit for 2-step covalent inhibitor. In outline: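 Time-dependent inhibition was followed by quenching reactions with EDTA at points up to 60 min, then staining product DNA with PicoGreen fluorescence. Reactions held 0.8 nM E. coli-expressed Polθ, 100 nM primed DNA substrate and […] at pH 7.5, 1% DMSO. kobs versus inhibitor concentration gave Kinact and KI.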

The results in this text go back to patent publication US20250230165A1, “HETEROCYCLIC COMPOUNDS FOR USE IN THE TREATMENT OF CANCER” (ARTIOS PHARMA LIMITED, priority 2021, published 2025).

In turn, `C=CC(=O)Nc1ccc(CN2C[C@H]3CC(=O)N(c4cc(C(F)(F)F)cc(C)n4)[C@@H]3C(=O)N(C)c3cccc(Cl)c32)cn1` [Example 282, N-(5-(((3aR,11aS)-6-chloro-10-methyl-1-(6-methyl-4-(trifluoromethyl)pyridin-2-yl)-2,11-dioxo-1,2,3,3a,4,10,11,11a-octahydro-5H-benzo[b]pyrrolo[2,3-f][1,4]diazocin-5-yl)methyl)pyridin-2-yl)acrylamide] registered a Kinact/Kl of 870000 M⁻¹ s⁻¹.
The figure for `C=CC(=O)N1CC(N2CCN(C(C)CN3C[C@H]4CC(=O)N(c5cc(C(F)(F)F)cc(C)n5)[C@@H]4C(=O)N(C)c4cccc(F)c43)CC2)C1` (stereo partly drawn) [Example 97, (3aR,11aS)-5-(2-(4-(1-acryloylazetidin-3-yl)piperazin-1-yl)propyl)-6-fluoro-10-methyl-1-(6-methyl-4-(trifluoromethyl)pyridin-2-yl)-1,3a,4,5,10,11a-hexahydro-2H-benzo[b]pyrrolo[2,3-f][1,4]diazocine-2,11(3H)-dione] is 1.18e+06 M⁻¹ s⁻¹.
Molecule `C=CC(=O)N1CCN2CC(=O)N(CCN3C[C@H]4CC(=O)N(c5cc(C(F)(F)F)cc(C)n5)[C@@H]4C(=O)N(C)c4cccc(F)c43)C[C@H]2C1` [Example 48, (3aR,11aS)-5-(2-((R)-8-acryloyl-3-oxooctahydro-2H-pyrazino[1,2-a]pyrazin-2-yl)ethyl)-6-fluoro-10-methyl-1-(6-methyl-4-(trifluoromethyl)pyridin-2-yl)-1,3a,4,5,10,11a-hexahydro-2H-benzo[b]pyrrolo[2,3-f][1,4]diazocine-2,11(3H)-dione] came in with a Kinact/Kl of 110000 M⁻¹ s⁻¹.
Turning to `C=CC(=O)N1CC2(CN(CCN3C[C@H]4CC(=O)N(c5cc(C(F)(F)F)cc(C)n5)[C@@H]4C(=O)N(C)c4cccc(F)c43)C[C@H]3CCCN32)C1` [Example 2, (3aR,11aS)-5-(2-((R)-1-Acryloyltetrahydro-1′H-spiro[azetidine-3,4′-pyrrolo[1,2-a]pyrazin]-2′(3′H)-yl)ethyl)-6-fluoro-10-methyl-1-(6-methyl-4-(trifluoromethyl)pyridin-2-yl)-1,3a,4,5,10,11a-hexahydro-2H-benzo[b]pyrrolo[2,3-f][1,4]diazocine-2,11(3H)-dione], the Kinact/Kl came out at 670000 M⁻¹ s⁻¹.
In the case of `Cc1cc(C(F)(F)F)cc(N2C(=O)C[C@@H]3CN(Cc4ccc(NC(=O)C5=CCCN(C)C5)cc4)c4c(C)cccc4N(C)C(=O)[C@H]32)n1` [Example 211, N-(4-(((3aR, 11aS)-6,10-dimethyl-1-(6-methyl-4-(trifluoromethyl)pyridin-2-yl)-2,11-dioxo-1,2,3,3a,4,10,11,11a-octahydro-5H-benzo[b]pyrrolo [2,3-f][1,4]diazocin-5-yl)methyl)phenyl)-1-methyl-1,2,5,6-tetrahydropyridine-3-carboxamide], the Kinact/Kl stood at 1.57e+06 M⁻¹ s⁻¹.
`C=CC(=O)N1Cc2ncn(CCN3C[C@H]4CC(=O)N(c5cc(C(F)(F)F)cc(C)n5)[C@@H]4C(=O)N(C)c4cccc(Cl)c43)c2C1` [Example 259, (3aR,11aS)-5-(2-(5-acryloyl-5,6-dihydropyrrolo[3,4-d]imidazol-1(4H)-yl)ethyl)-6-chloro-10-methyl-1-(6-methyl-4-(trifluoromethyl)pyridin-2-yl)-1,3a,4,5,10,11a-hexahydro-2H-benzo[b]pyrrolo[2,3-f][1,4]diazocine-2,11(3H)-dione] yielded a Kinact/Kl of 150000 M⁻¹ s⁻¹.
The figure for `C=CC(=O)N1CCn2cc(CN3C[C@H]4CC(=O)N(c5cc(C(F)(F)F)cc(C)n5)[C@@H]4C(=O)N(C)c4cccc(Cl)c43)nc2C1C` (single isomer, unassigned) [Example 142a] is 1.75e+06 M⁻¹ s⁻¹; for `Cc1cc(C(F)(F)F)cc(N2C(=O)C[C@@H]3CN(C[C@H]4C[C@H](NC(=O)/C=C/CN(C)C)C4)c4c(C)cccc4N(C)C(=O)[C@H]32)n1` [Example 331, (E)-N-((1R,3r)-3-(((3aR,11aS)-6,10-dimethyl-1-(6-meth-yl-4-(trifluorometh-yl)pyridin-2-yl)-2,11-dioxo-1,2,3,3a, 4,10,11,11a-octa-hydro-5H-benzo[b]pyrrolo[2,3-f][1,4]diazocin-5-yl)meth-yl)cyclobutyl)-4-(dimethylamino)but-2-enamide] it is 1.85e+06 M⁻¹ s⁻¹; for `C=CC(=O)N1CC2(CN(CCN3C[C@H]4CC(=O)N(c5cc(C(F)(F)F)cc(C)n5)[C@@H]4C(=O)N(C)c4cccc(F)c43)CC(=O)N2)C1` [Example 104, (3aR,11aS)-5-(2-(2-acryloyl-6-oxo-2,5,8-triazaspiro[3.5]nonan-8-yl)ethyl)-6-fluoro-10-methyl-1-(6-methyl-4-(trifluoromethyl)pyridin-2-yl)-1,3a,4,5,10,11a-hexahydro-2H-benzo[b]pyrrolo[2,3-f][1,4]diazocine-2,11(3H)-dione] it is 1.86e+06 M⁻¹ s⁻¹.
As for `C=CC(=O)N1Cc2nc(CN3C[C@H]4CC(=O)N(c5cc(C(F)(F)F)cc(C)n5)[C@@H]4C(=O)N(C)c4cccc(C)c43)ccc2C1CO` (stereo partly drawn) [Example 238, (3aR,11aS)-5-((6-acryloyl-5-(hydroxymethyl)-6,7-dihydro-5H-pyrrolo[3,4-b]pyridin-2-yl)methyl)-6,10-dimethyl-1-(6-methyl-4-(trifluoromethyl)pyridin-2-yl)-1,3a,4,5,10,11a-hexahydro-2H-benzo[b]pyrrolo[2,3-f][1,4]diazocine-2,11(3H)-dione], the figure is 740000 M⁻¹ s⁻¹; as for `C=C(CN(C)C)C(=O)N1CC(F)(COCCN2C[C@H]3CC(=O)N(c4cc(C(F)(F)F)cc(C)n4)[C@@H]3C(=O)N(C)c3cccc(Cl)c32)C1` [Example 305, (3aR,11aS)-6-chloro-5-(2-((1-(2-((dimethylamino)methyl)acryloyl)-3-fluoroazetidin-3-yl)methoxy)ethyl)-10-methyl-1-(6-methyl-4-(trifluoromethyl)pyridin-2-yl)-1,3a,4,5,10,11a-hexahydro-2H-benzo[b]pyrrolo[2,3-f][1,4]diazocine-2,11(3H)-dione], 1.82e+06 M⁻¹ s⁻¹.
In turn, `C=CC(=O)N1CCC[C@H]1c1nc(CN2C[C@H]3CC(=O)N(c4cc(C(F)(F)F)cc(C)n4)[C@@H]3C(=O)N(C)c3cccc(C)c32)no1` [Example 271, (3aR,11aS)-5-((5-((S)-1-acryloylpyrrolidin-2-yl)-1,2,4-oxadiazol-3-yl)methyl)-6,10-dimethyl-1-(6-methyl-4-(trifluoromethyl)pyridin-2-yl)-1,3a,4,5,10,11a-hexahydro-2H-benzo[b]pyrrolo[2,3-f][1,4]diazocine-2,11(3H)-dione] showed a Kinact/Kl of 200000 M⁻¹ s⁻¹.
The figure for `C=CC(=O)N1CC2(CN(CCN3C[C@H]4CC(=O)N(c5cc(C(F)(F)F)cc(C)n5)[C@@H]4C(=O)N(C)c4cccc(F)c43)CCO2)C1` [Example 4, (3aR,11aS)-5-(2-(2-acryloyl-5-oxa-2,8-diazaspiro[3.5]nonan-8-yl)ethyl)-6-fluoro-10-methyl-1-(6-methyl-4-(trifluoromethyl)pyridin-2-yl)-1,3a,4,5,10,11a-hexahydro-2H-benzo[b]pyrrolo[2,3-f][1,4]diazocine-2,11(3H)-dione] is 750000 M⁻¹ s⁻¹.
